# Source: patent US20230151003A1, “COMPOUNDS AND METHODS OF USE” (Exelixis, Inc., priority 2020, published 2023)
# Structures can show the parent of a compound that is named as a salt.
# Tests used:
# [1] = target: Met (Homo sapiens, UniProt P08581); assay: Met autophosphorylation ELISA in PC-3 cells; format: cell-based; set-up: endogenous in cells; host or cells: PC-3 prostate cancer cells (ATCC #CRL-1435); details: Table 3 Cellular Activities, HGF-stimulated, phospho-Met ELISA, read-out: c-Met IC50
# Summary of the method: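 IC50 derived by 4-parameter logistic regression of phospho-Met (panTyr) sandwich ELISA signal, scaled between HGF-stimulated DMSO and reference-inhibitor lysates. PC-3 cells, serum-starved 3 h, received an 8-point compound series (0.3% DMSO) for 1 h before 10 min stimulation with 100 ng/mL human HGF.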
# [2] = target: T1, Mer (Homo sapiens, UniProt Q12866); assay: Mer autophosphorylation ELISA in transient transfected 293A cells; format: cell-based; details: Table 3 Cellular Activities; MERTK-transfected 293A cells, phospho-Mer ELISA
# T1 construct: host or cells: 293A cells (Thermo Fisher #R70507)
# T1 sequence (Q12866 21-999): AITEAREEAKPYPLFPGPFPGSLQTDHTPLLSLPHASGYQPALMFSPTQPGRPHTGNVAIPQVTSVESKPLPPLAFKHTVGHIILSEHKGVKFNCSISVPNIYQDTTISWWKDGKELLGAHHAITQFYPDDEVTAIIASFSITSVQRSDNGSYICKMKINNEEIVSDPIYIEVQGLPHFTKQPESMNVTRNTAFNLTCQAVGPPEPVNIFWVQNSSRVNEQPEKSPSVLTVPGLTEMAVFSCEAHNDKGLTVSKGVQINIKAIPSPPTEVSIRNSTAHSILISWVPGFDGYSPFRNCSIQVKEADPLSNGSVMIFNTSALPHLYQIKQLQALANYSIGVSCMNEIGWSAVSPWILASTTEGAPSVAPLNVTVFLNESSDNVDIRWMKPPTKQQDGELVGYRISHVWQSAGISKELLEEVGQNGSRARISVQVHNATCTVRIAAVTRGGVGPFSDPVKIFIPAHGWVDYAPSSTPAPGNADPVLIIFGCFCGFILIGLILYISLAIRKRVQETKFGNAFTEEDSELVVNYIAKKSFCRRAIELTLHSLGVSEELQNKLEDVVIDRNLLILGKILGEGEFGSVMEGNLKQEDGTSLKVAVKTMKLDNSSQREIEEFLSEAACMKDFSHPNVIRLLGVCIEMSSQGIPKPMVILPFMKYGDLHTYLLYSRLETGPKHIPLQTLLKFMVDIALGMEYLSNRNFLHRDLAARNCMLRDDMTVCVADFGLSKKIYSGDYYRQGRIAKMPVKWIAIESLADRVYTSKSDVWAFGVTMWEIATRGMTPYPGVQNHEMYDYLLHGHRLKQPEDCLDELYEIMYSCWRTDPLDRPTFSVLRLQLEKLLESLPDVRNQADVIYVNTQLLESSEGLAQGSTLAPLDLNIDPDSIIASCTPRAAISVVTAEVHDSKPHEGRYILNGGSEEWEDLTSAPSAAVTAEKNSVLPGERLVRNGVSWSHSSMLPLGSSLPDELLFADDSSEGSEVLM
# Summary of the method: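 Phospho-Mer quantified by ELISA in lysates of transiently MERTK-transfected 293A cells after 1 h exposure to an 8-point compound series, serum-free, 0.3% DMSO. Activity normalized between DMSO-treated (100%) and reference inhibitor-treated (0%) lysates; IC50 via 4-parameter nonlinear regression.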
# Sequence of Met (P08581 25-1390): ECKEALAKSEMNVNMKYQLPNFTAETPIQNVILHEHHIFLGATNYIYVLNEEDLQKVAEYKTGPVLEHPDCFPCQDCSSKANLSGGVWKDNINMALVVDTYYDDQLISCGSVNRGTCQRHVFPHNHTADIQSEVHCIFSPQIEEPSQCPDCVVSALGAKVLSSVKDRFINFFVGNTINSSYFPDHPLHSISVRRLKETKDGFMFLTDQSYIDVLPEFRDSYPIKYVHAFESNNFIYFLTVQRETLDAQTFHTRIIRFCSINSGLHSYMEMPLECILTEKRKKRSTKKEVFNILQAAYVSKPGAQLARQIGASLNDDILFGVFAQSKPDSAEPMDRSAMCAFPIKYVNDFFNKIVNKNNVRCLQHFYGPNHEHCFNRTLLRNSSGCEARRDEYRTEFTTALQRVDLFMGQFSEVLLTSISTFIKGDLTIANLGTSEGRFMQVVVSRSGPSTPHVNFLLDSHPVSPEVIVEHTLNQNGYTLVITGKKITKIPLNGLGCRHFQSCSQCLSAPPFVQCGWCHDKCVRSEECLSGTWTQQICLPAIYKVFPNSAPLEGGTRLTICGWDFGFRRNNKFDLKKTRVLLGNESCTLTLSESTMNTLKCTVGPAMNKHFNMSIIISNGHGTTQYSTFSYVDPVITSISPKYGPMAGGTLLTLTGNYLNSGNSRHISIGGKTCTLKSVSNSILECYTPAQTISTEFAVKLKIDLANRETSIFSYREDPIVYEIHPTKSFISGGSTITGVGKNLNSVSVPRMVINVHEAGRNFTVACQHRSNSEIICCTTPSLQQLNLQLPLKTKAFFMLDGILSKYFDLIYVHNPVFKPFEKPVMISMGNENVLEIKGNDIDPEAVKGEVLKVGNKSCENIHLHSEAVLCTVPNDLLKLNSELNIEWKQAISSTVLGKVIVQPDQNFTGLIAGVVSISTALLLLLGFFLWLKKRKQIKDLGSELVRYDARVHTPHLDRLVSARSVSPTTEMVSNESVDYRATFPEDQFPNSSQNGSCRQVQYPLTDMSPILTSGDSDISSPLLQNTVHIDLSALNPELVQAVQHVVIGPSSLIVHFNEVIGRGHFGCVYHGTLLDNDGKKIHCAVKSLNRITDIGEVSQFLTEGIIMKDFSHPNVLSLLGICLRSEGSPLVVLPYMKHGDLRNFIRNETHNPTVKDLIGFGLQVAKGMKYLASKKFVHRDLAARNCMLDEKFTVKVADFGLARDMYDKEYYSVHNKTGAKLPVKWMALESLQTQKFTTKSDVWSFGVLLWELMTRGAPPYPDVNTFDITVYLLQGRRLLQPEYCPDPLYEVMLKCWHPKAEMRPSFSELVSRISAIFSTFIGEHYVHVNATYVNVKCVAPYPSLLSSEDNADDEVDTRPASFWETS
SMILES,IC50 [1],IC50 [2]
"COc1cc2nccc(Oc3ccc(NC(=O)c4c5n(cc(-c6cccs6)c4=O)CCOC5)cc3F)c2nc1OC [Compound 309, N-[4-[(6,7-Dimethoxy-1,5-naphthyridin-4-yl)oxy]-3-fluorophenyl]-8-oxo-7-thiophen-2-yl-3,4-dihydro-1H-pyrido[2,1-c][1,4]oxazine-9-carboxamide]",≤ 100 nM,≤ 100 nM
"COc1cnc2c(Oc3ccc(NC(=O)c4cc(C(C)=O)c(C)n(-c5ccoc5)c4=O)cc3F)ccnc2c1 [Compound 240, 5-Acetyl-N-[3-fluoro-4-[(7-methoxy-1,5-naphthyridin-4-yl)oxy]phenyl]-1-(furan-3-yl)-6-methyl-2-oxopyridine-3-carboxamide]",300 to 1000 nM,≤ 100 nM
"COCCOc1cc2nccc(Oc3ccc(NC(=O)c4c(C)n(C)c(C)c(-c5coc6ccccc56)c4=O)cc3F)c2nc1OC [Compound 264, 5-(1-Benzofuran-3-yl)-N-[3-fluoro-4-[[6-methoxy-7-(2-methoxyethoxy)-1,5-naphthyridin-4-yl]oxy]phenyl]-1,2,6-trimethyl-4-oxopyridine-3-carboxamide]",≤ 100 nM,≤ 100 nM
"COc1cc2nccc(Oc3ccc(NC(=O)c4cccn(-c5cc[n+]([O-])cc5)c4=O)cc3F)c2nc1OC [Compound 247, N-[4-[(6,7-Dimethoxy-1,5-naphthyridin-4-yl)oxy]-3-fluorophenyl]-1-(1-oxidopyridin-1-ium-4-yl)-2-oxopyridine-3-carboxamide hydrochloride]",≤ 100 nM,≤ 100 nM
"COc1cnc2c(Oc3ccc(NC(=O)c4cnc(C)c(-c5cccs5)c4O)cc3)ccnc2c1 [Compound 257, 4-Hydroxy-N-[4-[(7-methoxy-1,5-naphthyridin-4-yl)oxy]phenyl]-6-methyl-5-thiophen-2-ylpyridine-3-carboxamide]",≤ 100 nM,≤ 100 nM
"COc1cc2nccc(Oc3ccc(NC(=O)c4cnc(C)c(-c5ccco5)c4O)cc3)c2cc1OC [Compound 258, N-[4-(6,7-Dimethoxyquinolin-4-yl)oxyphenyl]-5-(furan-2-yl)-4-hydroxy-6-methylpyridine-3-carboxamide]",≤ 100 nM,≤ 100 nM
"COc1cc2nccc(Oc3ccc(NC(=O)c4cc(C#N)c(C)n(-c5ccc(F)cn5)c4=O)cc3F)c2nc1OC [Compound 56, 5-Cyano-N-[4-[(6,7-dimethoxy-1,5-naphthyridin-4-yl)oxy]-3-fluorophenyl]-1-(5-fluoropyridin-2-yl)-6-methyl-2-oxopyridine-3-carboxamide]",≤ 100 nM,≤ 100 nM
"COc1cc2nccc(Oc3ccc(NC(=O)c4cnc(C)c(-c5ccco5)n4)cc3F)c2nc1OC [Compound 269, N-[4-[(6,7-Dimethoxy-1,5-naphthyridin-4-yl)oxy]-3-fluorophenyl]-6-(furan-2-yl)-5-methylpyrazine-2-carboxamide]",≤ 100 nM,≤ 100 nM
"COc1cc2nccc(Oc3ccc(NC(=O)c4cc(C(C)=O)c(C)n(-c5ccoc5)c4=O)cc3F)c2nc1OC [Compound 235, 5-Acetyl-N-[4-[(6,7-dimethoxy-1,5-naphthyridin-4-yl)oxy]-3-fluorophenyl]-1-(furan-3-yl)-6-methyl-2-oxopyridine-3-carboxamide]",≤ 100 nM,≤ 100 nM

# Further lines, results first:
IC50 [1],IC50 [2],SMILES
≤ 100 nM,≤ 100 nM,"COc1cc2nccc(Oc3ccc(NC(=O)c4c(C)nc(C)c(-c5ccc(F)cn5)c4O)cc3F)c2nc1OC [Compound 218, N-[4-[(6,7-Dimethoxy-1,5-naphthyridin-4-yl)oxy]-3-fluorophenyl]-5-(5-fluoropyridin-2-yl)-4-hydroxy-2,6-dimethylpyridine-3-carboxamide]"
≤ 100 nM,≤ 100 nM,"COc1cc2nccc(Oc3ccc(NC(=O)c4nnc(C)c(-c5ccc(F)cn5)c4OC)cc3F)c2nc1OC [Compound 215, N-[4-[(6,7-Dimethoxy-1,5-naphthyridin-4-yl)oxy]-3-fluorophenyl]-5-(5-fluoropyridin-2-yl)-4-methoxy-6-methylpyridazine-3-carboxamide]"
≤ 100 nM,≤ 100 nM,"CCOc1ccn(-c2ccc(F)cn2)c(=O)c1C(=O)Nc1ccc(Oc2ccnc3cc(OC)c(OC)nc23)c(F)c1 [Compound 243, N-[4-[(6,7-dimethoxy-1,5-naphthyridin-4-yl)oxy]-3-fluorophenyl]-4-ethoxy-1-(5-fluoropyridin-2-yl)-2-oxopyridine-3-carboxamide]"
≤ 100 nM,≤ 100 nM,"COc1cc2nccc(Oc3ccc(NC(=O)c4ccc(C)n(-c5ccc(F)c(C)n5)c4=O)cc3F)c2nc1OC [Compound 227, N-[4-[(6,7-Dimethoxy-1,5-naphthyridin-4-yl)oxy]-3-fluorophenyl]-1-(5-fluoro-6-methylpyridin-2-yl)-6-methyl-2-oxopyridine-3-carboxamide hydrochloride]"
≤ 100 nM,≤ 100 nM,"COc1cc2nccc(Oc3ccc(NC(=O)c4ccc(C)n(-c5ccc(F)cn5)c4=O)cc3)c2nc1OC [Compound 44, N-[4-[(6,7-Dimethoxy-1,5-naphthyridin-4-yl)oxy]phenyl]-1-(5-fluoropyridin-2-yl)-6-methyl-2-oxopyridine-3-carboxamide]"
≤ 100 nM,≤ 100 nM,"COc1cc2nccc(Oc3ccc(NC(=O)c4cccn(-c5ccncc5)c4=O)cc3F)c2nc1OC [Compound 229, N-[4-[(6,7-Dimethoxy-1,5-naphthyridin-4-yl)oxy]-3-fluorophenyl]-2-oxo-1-pyridin-4-ylpyridine-3-carboxamide]"
≤ 100 nM,≤ 100 nM,"COc1cc2nccc(Oc3ccc(NC(=O)c4c(C)nc(C)c(-c5ccc(F)cn5)c4O)cc3)c2nc1OC [Compound 216, N-[4-[(6,7-Dimethoxy-1,5-naphthyridin-4-yl)oxy]phenyl]-5-(5-fluoropyridin-2-yl)-4-hydroxy-2,6-dimethylpyridine-3-carboxamide]"
≤ 100 nM,≤ 100 nM,"COc1cc2nccc(Oc3ccc(NC(=O)c4c(C)n(C)cc(-c5ccc(F)cn5)c4=O)cc3F)c2nc1OC [Compound 71, N-[4-[(6,7-Dimethoxy-1,5-naphthyridin-4-yl)oxy]-3-fluorophenyl]-5-(5-fluoropyridin-2-yl)-1,2-dimethyl-4-oxopyridine-3-carboxamide]"
